According to article PMC11126104 (Toxins, 2024):

What was measured:
[1] = pH 7
[2] = test system: Caco-2/HT-29MTX monolayers
[3] = test system: Caco-2/HT-29MTX cells
[4] = in vitro; conditions: human
[5] = rat, in vivo; cited from earlier work
[6] = cited from earlier work

Compound	intestinal bioaccessibility, range of values [1]	FA (%) absorption category [2]	toxicity / cell viability (MTT) [3]	Papp [4] [×10⁻⁶ cm/s]	absorption within the intestinal tract [5]	log Po/w [6]
CC(C)[C@H]1C(=O)O[C@H](C(C)C)C(=O)N(C)[C@@H](C(C)C)C(=O)O[C@H](C(C)C)C(=O)N(C)[C@@H](C(C)C)C(=O)O[C@H](C(C)C)C(=O)N1C [ENNB, enniatin B]	0.6-98.2%	High	not affecting cell viability	91.6	–	–
COc1cc2c(c3oc4cccc(O)c4c(=O)c13)[C@@H]1C=CO[C@@H]1O2 [STG, sterigmatocystin]	1.5-59.3%	High	not affecting cell viability	–	–	–
aflatoxin B1 [AFB1]	–	–	not affecting cell viability	–	nearly total absorption	2.09
